Data from ChEMBL document CHEMBL5465560, “Selectivity Literature for EUbOPEN Chemogenomic Library” (2024).

What was measured:
[1] = molecular target: T1, Dual specificity tyrosine-phosphorylation-regulated kinase 2 (Homo sapiens) (UniProt Q92630); assay: Selectivity interaction (KinomeScan (DiscoverX)) EUB0000229b DYRK2; conditions: at 10 µM
T1 sequence (whole entry): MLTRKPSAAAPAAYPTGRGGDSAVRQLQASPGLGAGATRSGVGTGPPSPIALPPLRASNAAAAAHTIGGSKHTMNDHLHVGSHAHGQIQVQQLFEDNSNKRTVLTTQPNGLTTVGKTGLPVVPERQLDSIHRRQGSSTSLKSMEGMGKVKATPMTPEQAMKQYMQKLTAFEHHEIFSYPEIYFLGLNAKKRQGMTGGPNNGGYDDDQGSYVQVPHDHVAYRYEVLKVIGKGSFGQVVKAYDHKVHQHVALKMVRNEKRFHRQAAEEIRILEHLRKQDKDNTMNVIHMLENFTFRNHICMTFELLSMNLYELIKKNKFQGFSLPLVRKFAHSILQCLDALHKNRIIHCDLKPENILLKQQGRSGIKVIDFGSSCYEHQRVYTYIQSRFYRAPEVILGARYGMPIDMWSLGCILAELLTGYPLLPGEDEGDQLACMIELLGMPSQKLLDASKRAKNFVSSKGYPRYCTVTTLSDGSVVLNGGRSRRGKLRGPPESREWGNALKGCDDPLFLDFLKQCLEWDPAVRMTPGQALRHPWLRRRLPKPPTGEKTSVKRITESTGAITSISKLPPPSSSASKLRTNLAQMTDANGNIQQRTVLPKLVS

[2] = molecular target: T2, Mitogen-activated protein kinase kinase kinase 19 (Homo sapiens) (UniProt Q56UN5); assay: Selectivity interaction (KinomeScan (DiscoverX)) EUB0000666a MAP3K19; conditions: at 10 µM
T2 sequence (whole entry): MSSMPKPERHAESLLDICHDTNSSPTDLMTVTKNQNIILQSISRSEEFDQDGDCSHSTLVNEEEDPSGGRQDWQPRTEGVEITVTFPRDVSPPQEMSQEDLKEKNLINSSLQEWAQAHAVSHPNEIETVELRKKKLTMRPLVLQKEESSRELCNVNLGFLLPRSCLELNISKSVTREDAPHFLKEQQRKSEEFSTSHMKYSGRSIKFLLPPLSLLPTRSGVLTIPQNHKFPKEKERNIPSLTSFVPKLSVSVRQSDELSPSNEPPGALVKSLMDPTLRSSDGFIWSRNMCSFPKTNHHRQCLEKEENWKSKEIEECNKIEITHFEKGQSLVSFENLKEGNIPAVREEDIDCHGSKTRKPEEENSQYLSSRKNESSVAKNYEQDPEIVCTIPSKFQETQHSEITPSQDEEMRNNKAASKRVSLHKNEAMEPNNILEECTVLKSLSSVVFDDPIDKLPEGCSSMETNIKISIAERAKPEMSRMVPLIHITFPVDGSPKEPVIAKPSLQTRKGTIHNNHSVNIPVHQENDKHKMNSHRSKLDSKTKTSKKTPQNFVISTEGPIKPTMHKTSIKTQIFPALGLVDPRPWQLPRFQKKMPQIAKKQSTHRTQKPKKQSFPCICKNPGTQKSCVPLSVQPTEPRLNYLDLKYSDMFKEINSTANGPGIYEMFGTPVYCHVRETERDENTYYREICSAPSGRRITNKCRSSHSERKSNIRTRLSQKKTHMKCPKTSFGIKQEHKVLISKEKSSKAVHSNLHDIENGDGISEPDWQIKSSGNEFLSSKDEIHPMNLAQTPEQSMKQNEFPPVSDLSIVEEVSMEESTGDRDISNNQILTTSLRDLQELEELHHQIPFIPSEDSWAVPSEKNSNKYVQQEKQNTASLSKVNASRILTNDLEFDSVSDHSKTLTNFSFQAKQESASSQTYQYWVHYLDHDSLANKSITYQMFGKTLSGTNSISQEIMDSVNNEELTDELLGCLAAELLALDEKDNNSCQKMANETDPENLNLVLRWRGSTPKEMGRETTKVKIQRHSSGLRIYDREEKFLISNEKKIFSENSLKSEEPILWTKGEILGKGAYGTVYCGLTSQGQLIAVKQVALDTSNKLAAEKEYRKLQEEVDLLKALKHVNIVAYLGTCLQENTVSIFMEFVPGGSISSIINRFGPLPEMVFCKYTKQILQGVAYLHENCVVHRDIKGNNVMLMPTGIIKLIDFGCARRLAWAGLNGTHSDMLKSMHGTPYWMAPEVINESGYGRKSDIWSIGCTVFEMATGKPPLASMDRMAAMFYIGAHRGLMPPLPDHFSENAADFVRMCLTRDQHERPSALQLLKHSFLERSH

[3] = molecular target: Citron Rho-interacting kinase (Homo sapiens) (UniProt O14578); assay: Selectivity interaction (KinomeScan (DiscoverX)) EUB0001049a CIT; conditions: at 1 µM
[4] = molecular target: Non-receptor tyrosine-protein kinase TYK2 (Homo sapiens, UniProt P29597); assay: Selectivity interaction (KinomeScan (DiscoverX)) EUB0000092b TYK2; conditions: at 10 µM
[5] = molecular target: Angiopoietin-1 receptor (Homo sapiens) (UniProt Q02763); assay: Selectivity interaction (KinomeScan (DiscoverX)) EUB0000092b TEK; conditions: at 10 µM
Sequence of Angiopoietin-1 receptor (Homo sapiens) (Q02763 whole entry): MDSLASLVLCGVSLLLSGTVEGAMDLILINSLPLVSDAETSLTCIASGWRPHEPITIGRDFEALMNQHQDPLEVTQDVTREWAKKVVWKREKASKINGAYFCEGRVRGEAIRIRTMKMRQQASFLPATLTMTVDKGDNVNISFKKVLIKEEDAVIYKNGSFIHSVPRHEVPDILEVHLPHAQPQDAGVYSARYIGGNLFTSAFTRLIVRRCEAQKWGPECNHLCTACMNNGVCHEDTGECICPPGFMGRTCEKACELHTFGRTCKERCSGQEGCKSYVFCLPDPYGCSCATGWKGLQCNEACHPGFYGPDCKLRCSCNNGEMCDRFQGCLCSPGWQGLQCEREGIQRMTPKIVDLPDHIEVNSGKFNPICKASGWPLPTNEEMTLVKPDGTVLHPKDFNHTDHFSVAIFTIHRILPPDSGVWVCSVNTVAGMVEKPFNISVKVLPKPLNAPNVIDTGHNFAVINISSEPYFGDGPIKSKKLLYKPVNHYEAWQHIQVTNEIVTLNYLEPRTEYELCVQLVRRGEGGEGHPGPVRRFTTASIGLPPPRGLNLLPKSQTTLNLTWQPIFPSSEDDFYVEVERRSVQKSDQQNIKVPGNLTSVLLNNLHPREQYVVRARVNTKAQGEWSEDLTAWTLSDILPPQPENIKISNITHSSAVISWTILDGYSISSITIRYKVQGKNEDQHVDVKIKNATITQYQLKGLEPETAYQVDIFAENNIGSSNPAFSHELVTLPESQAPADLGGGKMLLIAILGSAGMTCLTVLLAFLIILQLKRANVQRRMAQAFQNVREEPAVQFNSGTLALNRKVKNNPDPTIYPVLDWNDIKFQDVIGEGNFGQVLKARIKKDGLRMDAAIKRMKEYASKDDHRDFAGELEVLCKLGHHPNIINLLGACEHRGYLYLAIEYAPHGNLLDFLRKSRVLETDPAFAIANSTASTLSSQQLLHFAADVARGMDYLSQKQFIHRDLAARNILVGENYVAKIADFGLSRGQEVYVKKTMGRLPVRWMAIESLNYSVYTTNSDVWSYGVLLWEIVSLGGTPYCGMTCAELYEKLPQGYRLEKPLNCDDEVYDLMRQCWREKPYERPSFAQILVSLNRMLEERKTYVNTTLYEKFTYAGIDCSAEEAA

Sequence of Citron Rho-interacting kinase (Homo sapiens) (O14578 whole entry): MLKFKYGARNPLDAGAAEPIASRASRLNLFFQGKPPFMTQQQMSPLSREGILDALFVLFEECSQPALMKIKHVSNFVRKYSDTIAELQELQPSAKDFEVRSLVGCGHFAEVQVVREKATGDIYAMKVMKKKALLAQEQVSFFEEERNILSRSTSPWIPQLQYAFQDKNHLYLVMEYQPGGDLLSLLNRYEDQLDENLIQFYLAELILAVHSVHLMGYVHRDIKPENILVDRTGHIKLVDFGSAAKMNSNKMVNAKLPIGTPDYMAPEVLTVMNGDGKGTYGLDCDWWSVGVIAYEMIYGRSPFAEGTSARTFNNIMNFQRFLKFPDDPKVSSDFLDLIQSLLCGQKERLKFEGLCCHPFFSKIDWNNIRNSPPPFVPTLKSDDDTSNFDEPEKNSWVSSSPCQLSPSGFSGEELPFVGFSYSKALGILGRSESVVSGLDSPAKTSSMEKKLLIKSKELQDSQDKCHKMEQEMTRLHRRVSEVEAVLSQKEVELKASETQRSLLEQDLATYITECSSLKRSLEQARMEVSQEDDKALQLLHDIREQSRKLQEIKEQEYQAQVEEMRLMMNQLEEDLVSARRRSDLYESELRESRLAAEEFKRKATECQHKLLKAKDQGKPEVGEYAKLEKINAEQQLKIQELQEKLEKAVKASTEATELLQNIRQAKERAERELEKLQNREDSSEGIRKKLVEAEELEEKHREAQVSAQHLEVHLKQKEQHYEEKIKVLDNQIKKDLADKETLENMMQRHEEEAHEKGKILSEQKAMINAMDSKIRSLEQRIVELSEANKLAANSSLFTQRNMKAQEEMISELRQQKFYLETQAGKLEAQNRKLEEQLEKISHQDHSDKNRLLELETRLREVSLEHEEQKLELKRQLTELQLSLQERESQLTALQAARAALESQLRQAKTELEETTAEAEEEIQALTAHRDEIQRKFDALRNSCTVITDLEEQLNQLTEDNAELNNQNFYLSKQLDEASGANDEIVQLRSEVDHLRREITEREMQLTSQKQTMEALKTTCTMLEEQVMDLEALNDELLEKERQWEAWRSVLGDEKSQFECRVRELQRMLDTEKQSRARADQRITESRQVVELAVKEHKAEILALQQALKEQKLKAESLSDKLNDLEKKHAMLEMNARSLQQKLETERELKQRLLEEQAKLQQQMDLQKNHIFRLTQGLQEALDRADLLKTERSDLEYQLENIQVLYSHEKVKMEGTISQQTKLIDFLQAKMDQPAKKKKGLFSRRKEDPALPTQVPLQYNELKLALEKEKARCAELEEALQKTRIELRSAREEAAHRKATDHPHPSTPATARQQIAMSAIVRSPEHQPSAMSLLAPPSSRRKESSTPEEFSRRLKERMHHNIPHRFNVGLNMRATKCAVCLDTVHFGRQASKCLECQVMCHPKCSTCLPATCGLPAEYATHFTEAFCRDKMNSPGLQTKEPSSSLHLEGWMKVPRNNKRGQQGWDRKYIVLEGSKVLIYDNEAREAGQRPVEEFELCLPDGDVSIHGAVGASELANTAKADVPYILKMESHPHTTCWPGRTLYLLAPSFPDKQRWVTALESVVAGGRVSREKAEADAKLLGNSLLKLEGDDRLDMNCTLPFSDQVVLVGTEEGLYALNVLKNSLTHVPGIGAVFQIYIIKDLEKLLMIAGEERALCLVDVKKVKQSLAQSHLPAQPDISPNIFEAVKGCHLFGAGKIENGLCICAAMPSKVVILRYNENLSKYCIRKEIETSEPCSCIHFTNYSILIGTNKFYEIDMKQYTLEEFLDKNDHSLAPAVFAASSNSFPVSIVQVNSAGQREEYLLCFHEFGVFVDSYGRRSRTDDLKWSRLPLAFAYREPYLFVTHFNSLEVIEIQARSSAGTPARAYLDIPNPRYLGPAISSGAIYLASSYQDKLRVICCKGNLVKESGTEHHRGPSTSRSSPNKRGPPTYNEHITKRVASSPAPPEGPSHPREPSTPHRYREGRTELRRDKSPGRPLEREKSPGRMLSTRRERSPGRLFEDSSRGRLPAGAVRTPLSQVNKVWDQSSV
Sequence of Non-receptor tyrosine-protein kinase TYK2 (P29597 whole entry): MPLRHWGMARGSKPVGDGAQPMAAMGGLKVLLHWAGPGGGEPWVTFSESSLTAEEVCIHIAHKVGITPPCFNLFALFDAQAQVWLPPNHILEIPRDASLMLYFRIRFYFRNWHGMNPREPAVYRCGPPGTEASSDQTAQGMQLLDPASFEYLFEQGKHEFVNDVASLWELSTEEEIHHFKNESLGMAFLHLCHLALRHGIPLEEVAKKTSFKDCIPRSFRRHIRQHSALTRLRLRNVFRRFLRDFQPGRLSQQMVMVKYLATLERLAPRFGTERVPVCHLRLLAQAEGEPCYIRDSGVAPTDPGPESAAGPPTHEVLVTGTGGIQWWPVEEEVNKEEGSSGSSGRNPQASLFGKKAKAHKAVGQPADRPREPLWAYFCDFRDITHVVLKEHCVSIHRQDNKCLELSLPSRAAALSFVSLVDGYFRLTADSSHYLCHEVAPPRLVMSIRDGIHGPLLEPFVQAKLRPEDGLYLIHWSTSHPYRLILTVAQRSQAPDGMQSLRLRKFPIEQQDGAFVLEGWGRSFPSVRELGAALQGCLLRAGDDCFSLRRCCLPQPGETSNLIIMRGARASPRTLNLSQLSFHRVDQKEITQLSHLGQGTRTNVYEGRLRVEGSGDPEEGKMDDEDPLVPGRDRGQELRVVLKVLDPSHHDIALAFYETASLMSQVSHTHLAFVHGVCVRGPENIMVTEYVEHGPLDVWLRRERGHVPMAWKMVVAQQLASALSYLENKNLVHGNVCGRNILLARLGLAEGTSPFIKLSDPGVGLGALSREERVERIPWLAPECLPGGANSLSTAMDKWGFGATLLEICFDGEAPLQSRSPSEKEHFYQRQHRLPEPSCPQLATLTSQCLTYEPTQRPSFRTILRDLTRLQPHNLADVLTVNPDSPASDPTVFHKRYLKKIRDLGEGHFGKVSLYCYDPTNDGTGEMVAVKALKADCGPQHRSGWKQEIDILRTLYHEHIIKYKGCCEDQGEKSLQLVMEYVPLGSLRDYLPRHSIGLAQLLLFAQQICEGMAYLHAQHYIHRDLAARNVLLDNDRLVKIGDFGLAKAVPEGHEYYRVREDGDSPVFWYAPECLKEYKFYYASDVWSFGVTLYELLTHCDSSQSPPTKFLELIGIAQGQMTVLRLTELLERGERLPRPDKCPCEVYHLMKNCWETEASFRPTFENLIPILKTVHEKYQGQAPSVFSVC

COc1cc(N(C)c2ccnc3ccc(C(F)(F)F)cc23)cc(OC)c1OC
% binding [1]: 84%

O=C(NOC[C@H](O)CO)c1ccc(F)c(F)c1Nc1ccc(I)cc1F
% of control [2]: 100%

COc1cc(Nc2nc(C)cc(-c3cnn4nc(OC)ccc34)n2)cc(C(F)(F)F)c1
% of control [3]: 100%

CCC(=O)N1CCN(c2ccc(-n3c(=O)ccc4cnc5ccc(-c6cnc7ccccc7c6)cc5c43)cc2C(F)(F)F)CC1
% of control [4]: 55%
% of control [5]: 19%
